Target: T1, KCNQ2/3 channels (Homo sapiens, UniProt O43525+O43526)
T1 construct: expressed in transfected cells
Test: Fluorescence assay using a voltage sensitive dye (fluorimetry)
Assay type: cell-based
Conditions: CHO-K1 cells expressing KCNQ2/3; for Emax: CHO-K1, plateau effect relative to saturated retigabine (50 μM) = 100%, negative values = antagonistic, read-out: Fluorimetry % efficacy (retigabine = 100%); for EC50: IC50 where % efficacy is negative, read-out: Fluorimetry EC50/IC50

T1 sequence (O43526 whole entry): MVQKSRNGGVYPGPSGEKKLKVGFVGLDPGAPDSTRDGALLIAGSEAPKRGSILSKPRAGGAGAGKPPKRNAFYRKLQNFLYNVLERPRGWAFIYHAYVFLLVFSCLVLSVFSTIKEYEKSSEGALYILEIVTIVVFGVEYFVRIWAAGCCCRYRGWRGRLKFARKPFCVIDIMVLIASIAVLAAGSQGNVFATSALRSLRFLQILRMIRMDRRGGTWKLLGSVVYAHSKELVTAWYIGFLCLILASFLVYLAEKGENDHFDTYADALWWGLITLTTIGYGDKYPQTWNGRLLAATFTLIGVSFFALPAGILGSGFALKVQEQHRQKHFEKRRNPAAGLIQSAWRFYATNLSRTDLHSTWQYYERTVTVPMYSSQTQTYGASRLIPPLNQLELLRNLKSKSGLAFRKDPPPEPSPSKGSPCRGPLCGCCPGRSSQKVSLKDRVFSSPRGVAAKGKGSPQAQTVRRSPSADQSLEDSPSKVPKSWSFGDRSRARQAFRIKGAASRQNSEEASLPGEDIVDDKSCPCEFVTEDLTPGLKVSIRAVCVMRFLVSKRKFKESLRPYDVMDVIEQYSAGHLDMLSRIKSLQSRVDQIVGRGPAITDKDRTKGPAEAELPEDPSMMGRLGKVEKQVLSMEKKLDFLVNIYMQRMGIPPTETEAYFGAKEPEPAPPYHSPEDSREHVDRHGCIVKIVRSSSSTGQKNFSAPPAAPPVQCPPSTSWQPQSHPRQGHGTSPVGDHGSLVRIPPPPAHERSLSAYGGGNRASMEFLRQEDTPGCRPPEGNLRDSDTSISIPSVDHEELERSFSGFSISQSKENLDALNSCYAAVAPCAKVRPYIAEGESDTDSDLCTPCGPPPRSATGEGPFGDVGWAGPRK
T1 sequence (O43525 whole entry): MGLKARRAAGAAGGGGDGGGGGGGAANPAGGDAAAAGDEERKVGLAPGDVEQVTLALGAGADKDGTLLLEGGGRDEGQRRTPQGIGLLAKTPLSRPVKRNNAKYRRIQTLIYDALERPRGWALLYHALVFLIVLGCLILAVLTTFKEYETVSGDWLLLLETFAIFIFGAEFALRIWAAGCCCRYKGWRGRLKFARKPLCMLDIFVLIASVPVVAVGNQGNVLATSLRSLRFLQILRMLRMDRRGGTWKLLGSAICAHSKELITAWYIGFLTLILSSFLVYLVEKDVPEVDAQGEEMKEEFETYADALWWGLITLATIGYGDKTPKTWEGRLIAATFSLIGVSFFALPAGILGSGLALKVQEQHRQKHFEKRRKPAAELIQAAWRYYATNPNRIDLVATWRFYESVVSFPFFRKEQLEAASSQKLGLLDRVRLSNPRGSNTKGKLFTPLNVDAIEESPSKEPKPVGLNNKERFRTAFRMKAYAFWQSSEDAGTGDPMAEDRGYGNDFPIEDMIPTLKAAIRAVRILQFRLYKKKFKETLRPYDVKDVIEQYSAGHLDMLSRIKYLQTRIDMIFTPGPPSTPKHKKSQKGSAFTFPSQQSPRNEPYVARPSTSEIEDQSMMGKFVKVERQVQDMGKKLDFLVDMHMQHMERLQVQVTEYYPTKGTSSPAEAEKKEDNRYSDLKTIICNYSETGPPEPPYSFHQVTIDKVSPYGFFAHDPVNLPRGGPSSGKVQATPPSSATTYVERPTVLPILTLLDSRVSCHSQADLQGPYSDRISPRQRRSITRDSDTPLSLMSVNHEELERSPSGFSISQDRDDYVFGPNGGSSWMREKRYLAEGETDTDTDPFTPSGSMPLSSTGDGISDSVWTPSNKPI

| SMILES | Emax [%] | EC50 [nM] |
| --- | --- | --- |
| CCSc1nc(N2CCO[C@@H](C)C2)cc(C)c1C(=O)NCCCC(C)(C)C [Example 274, N-(4,4-Dimethyl-pentyl)-2-ethylsulfanyl-4-methyl-6-[(2S)-2-methyl-morpholin-4-yl]-pyridine-3-carboxylic acid amide] | 217 | 234 |
| CCSc1nc(N2CCO[C@H](C)C2)cc(C)c1C(=O)NCCCC(C)(C)C [Example 275, N-(4,4-Dimethyl-pentyl)-2-ethylsulfanyl-4-methyl-6-[(2R)-2-methyl-morpholin-4-yl]-pyridine-3-carboxylic acid amide] | 208 | 63 |
| Cc1cc(N2CCOCC2)nc(OCC2CC2)c1C(=O)NCc1ccc(F)cc1 [Example 276, 2-(Cyclopropyl-methoxy)-N-[(4-fluorophenyl)-methyl]-4-methyl-6-morpholin-4-yl-pyridine-3-carboxylic acid amide] | 102 | 143 |
| COC[C@H]1COCCN1c1cc(C)c(C(=O)NCc2ccc(Cl)cc2)c(C(C)C)n1 [Example 277, N-[(4-Chlorophenyl)-methyl]-2-isopropyl-6-[(3S)-3-(methoxymethyl)-morpholin-4-yl]-4-methyl-pyridine-3-carboxylic acid amide] | 129 | 17 |
| CCC(C)Cc1nc(N2CCOCC2)cc(C)c1C(=O)NCCCC(C)(C)C (stereo not shown) [Example 278, N-(4,4-Dimethyl-pentyl)-4-methyl-2-(2-methyl-butyl)-6-morpholin-4-yl-pyridine-3-carboxylic acid amide] | 225 | 36 |
| CCC(C)(C)c1nc(N2CCOCC2)cc(C)c1C(=O)NCCCC(C)(C)C [Example 279, N-(4,4-Dimethyl-pentyl)-2-(1,1-dimethyl-propyl)-4-methyl-6-morpholin-4-yl-pyridine-3-carboxylic acid amide] | 172 | 430 |
| CCSc1nc(N(C)C2CCCOC2)cc(C)c1C(=O)NCCCC(C)(C)C (stereo not shown) [Example 280, N-(4,4-Dimethyl-pentyl)-2-ethylsulfanyl-4-methyl-6-(methyl-tetrahydro-pyran-3-yl-amino)-pyridine-3-carboxylic acid amide] | 165 | 302 |
| CCSc1nc(N2CCOCC2)cc(C)c1C(=O)NCc1ccc([N+](=O)[O-])cc1 [Example 281, 2-Ethylsulfanyl-4-methyl-6-morpholin-4-yl-N-[(4-nitrophenyl)-methyl]-pyridine-3-carboxylic acid amide] | 109 | 311 |
| Cc1cc(N2CCOC[C@H]2C)nc(C2CC2)c1C(=O)NCc1ccc(Cl)cc1 [Example 282, N-[(4-Chlorophenyl)-methyl]-2-cyclopropyl-4-methyl-6-[(3R)-3-methyl-morpholin-4-yl]-pyridine-3-carboxylic acid amide] | 182 | 40 |
| Cc1cc(N2CCOCC2)nc(OCCN(C)C)c1C(=O)NCc1ccc(Cl)cc1 [Example 283, N-[(4-Chlorophenyl)-methyl]-2-(2-dimethylaminoethyloxy)-4-methyl-6-morpholin-4-yl-pyridine-3-carboxylic acid amide] | 22 | – |
| CCSc1nc(N2CCOCC2)cc(C)c1C(=O)NCc1ccc(F)c(OC)c1 [Example 284, 2-Ethylsulfanyl-N-[(4-fluoro-3-methoxy-phenyl)-methyl]-4-methyl-6-morpholin-4-yl-pyridine-3-carboxylic acid amide] | 94 | 648 |
| COC[C@@H]1CN(c2cc(C)c(C(=O)NCc3ccc(Cl)cc3)c(C(C)C)n2)CCO1 [Example 285, N-[(4-Chlorophenyl)-methyl]-2-isopropyl-6-[(2S)-2-(methoxymethyl)-morpholin-4-yl]-4-methyl-pyridine-3-carboxylic acid amide] | 126 | 157 |
| CCSc1nc(N2CCOCC2)cc(C)c1C(=O)NCCC(O)C(C)C (stereo not shown) [Example 286, 2-Ethylsulfanyl-N-(3-hydroxy-4-methyl-pentyl)-4-methyl-6-morpholin-4-yl-pyridine-3-carboxylic acid amide] | 198 | 1750 |
| CCSc1nc(N2CCOCC2)cc(C)c1C(=O)NCc1ccc(OC)c(F)c1 [Example 287, 2-Ethylsulfanyl-N-[(3-fluoro-4-methoxy-phenyl)-methyl]-4-methyl-6-morpholin-4-yl-pyridine-3-carboxylic acid amide] | 153 | 971 |
| CCSc1nc(N2CCOCC2)cc(C)c1C(=O)NCc1ccc(OC(F)F)cc1 [Example 288, N-[[4-(Difluoro-methoxy)-phenyl]-methyl]-2-ethylsulfanyl-4-methyl-6-morpholin-4-yl-pyridine-3-carboxylic acid amide] | 138 | 435 |
| CCSc1nc(N2CCOCC2)cc(C)c1C(=O)NCc1ccc2c(c1)COC2 [Example 289, N-(1,3-Dihydro-isobenzofuran-5-yl-methyl)-2-ethylsulfanyl-4-methyl-6-morpholin-4-yl-pyridine-3-carboxylic acid amide] | 129 | 2820 |

| SMILES | Emax [%] | EC50 [nM] |
| --- | --- | --- |
| COC[C@@H]1CN(c2cc(C)c(C(=O)NCc3ccc(Cl)cc3)c(C3CC3)n2)CCO1 [Example 290, N-[(4-Chlorophenyl)-methyl]-2-cyclopropyl-6-[(2S)-2-(methoxymethyl)-morpholin-4-yl]-4-methyl-pyridine-3-carboxylic acid amide] | 136 | 314 |
| CCSc1nc(N2CCO[C@H](CO)C2)cc(C)c1C(=O)NCc1cccc(F)c1 [Example 291, 2-Ethylsulfanyl-N-[(3-fluorophenyl)-methyl]-6-[(2S)-2-(hydroxymethyl)-morpholin-4-yl]-4-methyl-pyridine-3-carboxylic acid amide] | 53 | 7950 |
| CCSc1nc(N2CCO[C@@H](CO)C2)cc(C)c1C(=O)NCc1cccc(F)c1 [Example 292, 2-Ethylsulfanyl-N-[(3-fluorophenyl)-methyl]-6-[(2R)-2-(hydroxymethyl)-morpholin-4-yl]-4-methyl-pyridine-3-carboxylic acid amide] | 32 | – |
| CCSc1nc(N(C)CC2CCCO2)cc(C)c1C(=O)NCc1cccc(F)c1 (stereo not shown) [Example 294, 2-Ethylsulfanyl-N-[(3-fluorophenyl)-methyl]-4-methyl-6-[methyl-(tetrahydro-furan-2-yl-methyl)-amino]-pyridine-3-carboxylic acid amide] | 129 | 1030 |
| CCSc1nc(N2CCOC[C@H]2C)cc(C)c1C(=O)NCc1cccc(F)c1 [Example 295, 2-Ethylsulfanyl-N-[(3-fluorophenyl)-methyl]-4-methyl-6-[(3R)-3-methyl-morpholin-4-yl]-pyridine-3-carboxylic acid amide] | 188 | 50 |
| CCSc1nc(N2CCOC[C@@H]2C)cc(C)c1C(=O)NCc1cccc(F)c1 [Example 296, 2-Ethylsulfanyl-N-[(3-fluorophenyl)-methyl]-4-methyl-6-[(3S)-3-methyl-morpholin-4-yl]-pyridine-3-carboxylic acid amide] | 222 | 189 |
| CCSc1nc(N(C)Cc2ccc(C(F)(F)F)cc2)cc(C)c1C(=O)NCc1cccc(F)c1 [Example 297, 2-Ethylsulfanyl-N-[(3-fluorophenyl)-methyl]-4-methyl-6-[methyl-[[4-(trifluoromethyl)-phenyl]-methyl]-amino]-pyridine-3-carboxylic acid amide] | 125 | 177 |
| CCSc1nc(N2CCS(=O)(=O)CC2)cc(C)c1C(=O)NCc1cccc(F)c1 [Example 298, 6-(1,1-Dioxo-[1,4]thiazinan-4-yl)-2-ethylsulfanyl-N-[(3-fluorophenyl)-methyl]-4-methyl-pyridine-3-carboxylic acid amide] | 127 | 4590 |
| CCSc1nc(N2CCC2)cc(C)c1C(=O)NCc1cccc(F)c1 [Example 299, 6-(Azetidin-1-yl)-2-ethylsulfanyl-N-[(3-fluorophenyl)-methyl]-4-methyl-pyridine-3-carboxylic acid amide] | 104 | 920 |
| CCSc1nc(N(C)C2CCOC2)cc(C)c1C(=O)NCc1cccc(F)c1 (stereo not shown) [Example 301, 2-Ethylsulfanyl-N-[(3-fluorophenyl)-methyl]-4-methyl-6-(methyl-tetrahydro-furan-3-yl-amino)-pyridine-3-carboxylic acid amide] | 132 | 767 |
| CCSc1nc(N(C)c2ccccc2)cc(C)c1C(=O)NCc1cccc(F)c1 [Example 302, 2-Ethylsulfanyl-N-[(3-fluorophenyl)-methyl]-4-methyl-6-(N-methyl-anilino)-pyridine-3-carboxylic acid amide] | 93 | 278 |
| CCSc1nc(N2Cc3ccccc3C2)cc(C)c1C(=O)NCc1cccc(F)c1 [Example 303, 6-(2,3-Dihydro-1H-isoindol-2-yl)-2-ethylsulfanyl-N-[(3-fluorophenyl)-methyl]-4-methyl-pyridine-3-carboxylic acid amide] | 54 | 1150 |
| CCSc1nc(N2CCCc3ccccc32)cc(C)c1C(=O)NCc1cccc(F)c1 [Example 304, 2-Ethylsulfanyl-N-[(3-fluorophenyl)-methyl]-4-methyl-6-(1,2,3,4-tetrahydro-quinolin-1-yl)-pyridine-3-carboxylic acid amide] | 81 | 348 |
| CCSc1nc(N2CCc3ccccc32)cc(C)c1C(=O)NCc1cccc(F)c1 [Example 305, 6-(2,3-Dihydro-1H-indol-1-yl)-2-ethylsulfanyl-N-[(3-fluorophenyl)-methyl]-4-methyl-pyridine-3-carboxylic acid amide] | 57 | – |
| CCSc1nc(N2CCOCC2)cc(C)c1C(=O)NCC(C)CC(C)(C)C (stereo not shown) [Example 306, 2-Ethylsulfanyl-4-methyl-6-morpholin-4-yl-N-(2,4,4-trimethyl-pentyl)-pyridine-3-carboxylic acid amide] | 33 | – |
